Laboratory results taken from patent US7479277B2, “Method for reducing intraocular pressure using integrin-linked kinase inhibitor” (Wisconsin Alumni Research Foundation, priority 2005, dated 2009).

Tested on: cultured human trabecular meshwork (HTM) cells
Experiment: HTM cell spreading on fibronectin III7-10 coated coverslips, immunofluorescence microscopy
Type: cell-based
Protocol: A cultured human trabecular meshwork (HTM) diploid cell strain obtained from trabecular meshwork explants was serum-starved for twenty-four hours and then plated on 12 mm round glass coverslips (Bellco Glass, Inc.; Vineland, N.J.) coated with III7-10 domains of fibronectin (RGD cell-binding domain; 236 nM) for three hours at 37° C., 95% humidity, 5% CO2, ambient air. The cells were exposed to either DMSO (control) or an ILK inhibitor with or without 472 nM of the Hep II domain. Following incubation, cells were fixed for immunofluorescence microscopy by methods known to a skilled artisan.
HTM cells were examined by immunofluorescence microscopy using anti-vinculin (1:3000; Sigma-Aldrich; St. Louis, Mo.), anti-ILK (1:1000; Upstate Group, LLC; Charlottesville, Va.), anti-talin (1:1000; Chemicon; Temecula, Calif.), anti-paxillin (1:1000; BD Biosciences; San Jose, Calif.) or anti-FAK (1:1000; BD Biosciences) antibodies to reveal actin stress fibers and focal adhesions. […] Cell images were acquired with a Zeiss AxioCam HRm camera mounted on a Zeiss Axiophan 2 Imaging fluorescence microscope together with AxioVision v.3.1 software. The percentage of spread cells was determined by counting polygonal cells containing stress fibers (spread cells) versus rounded cells lacking stress fibers (non-spread cells) from eight to twelve fields.

Compound: O=c1cc(N2CCOCC2)oc2c(-c3ccccc3)cccc12 [LY29400]
- percentage of spread cells (LY29400 25 μM added to ILK inhibitor plus soluble Hep II domain 472 nM, p<0.008): 28%
- percentage of spread cells (administered alone, compared to control cells, p<0.2): 35%
